Measurements taken from US12133899B2 (priority 2020, dated 2024).

Experiments:
[1] = in vivo; format: in vivo, rats; conditions: rat; for drop of concentration in liver / drop of concentration in plasma: 2 weeks
Procedure: A single dose PK study of ALC-0315 and […] following intravenous (IV) bolus injection of a nanparticle formulation in rats was conducted to assess the PK and metabolism of lipid excipients ALC-0315 and ALC-0159.

[2] = format: in vitro ADME, mice, rats, monkeys, humans; conditions: blood, microsomes, S9, hepatocytes; rat samples
Procedure: In vitro metabolism of ALC-0315 and ALC-0159 was evaluated in blood, liver microsomes, S9 fractions, and hepatocytes from mice, rats, monkeys, and humans. In vivo metabolism was examined in rat plasma, urine, faeces, and liver samples from the PK study. […] ALC-0315 and ALC-0159 are apparently metabolised by hydrolytic metabolism of the ester and amide functionalities, respectively, and this hydrolytic metabolism is observed across the species evaluated.

[3] = tested on: luciferase expression; format: in vivo, mice; conditions: ALC-0315/DSPC/CHOL/ALC-0159 prototype; IV

Compound	half-life ([1]; in vivo, IV bolus, read-out: apparent terminal t½ in plasma and liver)	eliminated unchanged in faeces [1]	drop of concentration in liver ([1]; IV bolus)	drop of concentration in plasma ([1]; IV bolus)	metabolism in vitro and in vivo [2]	in vivo potency of Luc RNA LNP vs internal benchmark ALC-0218 [3]	unchanged material in urine or faeces [1]	apparent terminal t½ in plasma and liver ([1]; IV bolus)
CCCCCCCCCCCCCCN(CCCCCCCCCCCCCC)C(=O)COCCOCCOCCOCCOCCOCCOCCOCCOCCOCCOCCOCCOCCOCCOCCOCCOCCOCCOCCOCCOCCOCCOCCOCCOCCOCCOCCOCCOCCOCCOCCOCCOCCOCCOCCOCCOCCOCCOCCOCCOCCOCCOCCOCCOCCOC [ALC-0159, 2-[(polyethylene glycol)-2000]-N,N-ditetradecylacetamide]	48 to 72 h	50%	> 250 fold	approximately 8000 fold	relatively slowly	–	–	–
((4-hydroxybutyl)azanediyl)bis(hexane-6,1-diyl)bis(2-hexyldecanoate) [ALC-0315]	–	–	~4 fold	approximately 7000 fold	relatively slowly	improved potency	little to no unchanged material was detected	140 to 190 h
